# Assay results reported in ChEMBL document CHEMBL1201862, “PubChem BioAssay data set” (2004).
# Active and inactive are the calls of the source.
# Tests used:
# [1] = molecular target: Glyceraldehyde-3-phosphate dehydrogenase (Homo sapiens, UniProt P04406)
# [2] = molecular target: T1, Alkaline phosphatase, tissue-nonspecific isozyme (Homo sapiens, UniProt P05186); assay: human TNAP enzyme inhibitors, SAR follow-up, biochemical, luminescent, dose response (AID 1056)
# T1 sequence (P05186 whole entry): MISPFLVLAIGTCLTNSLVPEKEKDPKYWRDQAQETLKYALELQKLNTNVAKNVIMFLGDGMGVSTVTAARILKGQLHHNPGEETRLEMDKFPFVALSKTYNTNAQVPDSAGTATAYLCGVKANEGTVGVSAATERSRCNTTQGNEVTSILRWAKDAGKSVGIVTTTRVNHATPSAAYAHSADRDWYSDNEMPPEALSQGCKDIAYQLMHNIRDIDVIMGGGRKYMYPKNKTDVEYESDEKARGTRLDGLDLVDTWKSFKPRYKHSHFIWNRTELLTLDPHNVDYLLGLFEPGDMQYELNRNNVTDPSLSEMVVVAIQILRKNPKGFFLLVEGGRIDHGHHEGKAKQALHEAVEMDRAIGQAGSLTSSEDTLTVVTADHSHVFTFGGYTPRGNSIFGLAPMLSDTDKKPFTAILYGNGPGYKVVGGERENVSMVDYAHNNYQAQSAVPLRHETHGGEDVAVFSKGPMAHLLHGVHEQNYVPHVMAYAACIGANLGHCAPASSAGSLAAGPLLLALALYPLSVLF
# Leucine aminopeptidase = molecular target: T2, Leucine aminopeptidase (Plasmodium falciparum 3D7, UniProt Q8IL11); assay: P. falciparum M17LAP inhibitors, primary screen, biochemical, fluorogenic H-Leu-NHMec substrate, 1536-well (AID 1619); assay type: functional
# T2 sequence (Q8IL11 whole entry): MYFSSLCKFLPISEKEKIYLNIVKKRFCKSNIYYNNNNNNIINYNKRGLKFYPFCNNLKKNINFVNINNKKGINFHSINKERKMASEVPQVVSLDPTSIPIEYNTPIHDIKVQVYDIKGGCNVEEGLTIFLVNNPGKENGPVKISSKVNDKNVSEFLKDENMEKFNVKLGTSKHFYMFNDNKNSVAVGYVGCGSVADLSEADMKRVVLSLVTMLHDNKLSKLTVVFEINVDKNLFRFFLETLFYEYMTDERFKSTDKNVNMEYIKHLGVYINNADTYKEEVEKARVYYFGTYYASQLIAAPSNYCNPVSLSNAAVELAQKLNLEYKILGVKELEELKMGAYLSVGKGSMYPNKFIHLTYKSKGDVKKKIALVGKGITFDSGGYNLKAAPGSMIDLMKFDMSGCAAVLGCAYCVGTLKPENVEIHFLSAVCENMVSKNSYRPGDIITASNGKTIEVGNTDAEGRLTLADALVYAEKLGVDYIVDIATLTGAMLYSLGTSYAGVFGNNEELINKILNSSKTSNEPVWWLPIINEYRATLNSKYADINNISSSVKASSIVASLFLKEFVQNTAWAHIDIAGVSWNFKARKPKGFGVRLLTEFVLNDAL
# Aspartyl aminopeptidase = molecular target: T3, Aspartyl aminopeptidase (Plasmodium falciparum 3D7, UniProt Q8I2J3); assay: Counterscreen for inhibitors of M1 and M17 aminopeptidases: QFRET-based biochemical high throughput dose response assay for inhibitors of the Plasmodium falciparum M18 Aspartyl Aminopeptidase (PFM18AAP). [Related PubChem assays: 1619 (Screening assay (M17LAP inhibitors).), 1445 (Screening assay (M1AAP inhibitors).)]
# T3 sequence (Q8I2J3 whole entry): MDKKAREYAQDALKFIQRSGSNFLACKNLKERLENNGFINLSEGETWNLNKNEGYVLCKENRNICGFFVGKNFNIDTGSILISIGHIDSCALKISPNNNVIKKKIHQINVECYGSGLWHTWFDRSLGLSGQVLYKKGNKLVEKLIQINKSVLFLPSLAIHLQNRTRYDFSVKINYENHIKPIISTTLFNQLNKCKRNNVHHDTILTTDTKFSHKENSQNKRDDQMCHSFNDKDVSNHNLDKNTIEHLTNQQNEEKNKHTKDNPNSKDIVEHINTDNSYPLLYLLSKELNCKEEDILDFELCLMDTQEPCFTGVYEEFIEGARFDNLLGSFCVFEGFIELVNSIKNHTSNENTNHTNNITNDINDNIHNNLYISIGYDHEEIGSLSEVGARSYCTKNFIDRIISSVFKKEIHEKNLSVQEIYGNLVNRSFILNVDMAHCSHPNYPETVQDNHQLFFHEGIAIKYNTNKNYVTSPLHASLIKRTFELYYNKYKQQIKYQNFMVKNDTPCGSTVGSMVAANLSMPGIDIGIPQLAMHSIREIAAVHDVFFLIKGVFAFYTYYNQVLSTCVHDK
# Procathepsin L = Procathepsin L (Homo sapiens, UniProt P07711); assay: cathepsin L inhibitors, dose response, counter-screen for M1/M17 aminopeptidase inhibitor project, biochemical, QFRET, 1536-well (AID 2214)
# Chain of Procathepsin L (P07711 whole entry): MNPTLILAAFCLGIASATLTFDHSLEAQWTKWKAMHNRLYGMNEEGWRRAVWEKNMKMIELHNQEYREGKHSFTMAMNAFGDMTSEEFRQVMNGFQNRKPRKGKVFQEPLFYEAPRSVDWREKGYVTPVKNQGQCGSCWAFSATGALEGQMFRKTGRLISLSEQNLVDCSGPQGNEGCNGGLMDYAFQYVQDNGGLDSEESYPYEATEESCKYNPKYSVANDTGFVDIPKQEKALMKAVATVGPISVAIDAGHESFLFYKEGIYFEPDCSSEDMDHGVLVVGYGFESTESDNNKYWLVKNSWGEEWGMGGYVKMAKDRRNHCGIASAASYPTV
# [3] = A cytotoxicity screen of small molecule inhibitors of the PhoP region in Salmonella typhi identified in the primary screen. [Related pubchem assays: 1850, 1864, 1985 ]; assay type: functional
# Cytochrome P450 3A4 = Cytochrome P450 3A4 (Homo sapiens, UniProt P08684); conditions: Potency;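 also: confirmatory qHTS run detecting inhibitors and substrates of CYP3A4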
# Chain of Cytochrome P450 3A4 (P08684 whole entry): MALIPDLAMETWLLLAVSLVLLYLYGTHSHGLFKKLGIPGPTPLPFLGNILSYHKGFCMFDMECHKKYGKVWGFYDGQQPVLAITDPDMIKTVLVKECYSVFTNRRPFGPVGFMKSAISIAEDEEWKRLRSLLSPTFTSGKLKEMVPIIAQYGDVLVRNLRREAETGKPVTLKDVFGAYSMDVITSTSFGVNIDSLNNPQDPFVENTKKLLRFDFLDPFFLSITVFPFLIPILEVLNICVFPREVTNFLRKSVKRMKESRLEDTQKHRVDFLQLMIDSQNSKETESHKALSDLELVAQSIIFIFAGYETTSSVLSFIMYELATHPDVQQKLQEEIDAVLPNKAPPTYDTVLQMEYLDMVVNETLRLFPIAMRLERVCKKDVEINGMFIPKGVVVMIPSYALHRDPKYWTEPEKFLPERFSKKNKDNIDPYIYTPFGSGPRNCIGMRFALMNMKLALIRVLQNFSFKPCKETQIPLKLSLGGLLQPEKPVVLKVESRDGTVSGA
# [4] = molecular target: Alkaline phosphatase, placental type (Homo sapiens, UniProt P05187); assay: PLAP enzyme inhibitors, confirmation, biochemical, luminescence (AID 1512); assay type: functional
# Chain of Alkaline phosphatase, placental type (P05187 whole entry): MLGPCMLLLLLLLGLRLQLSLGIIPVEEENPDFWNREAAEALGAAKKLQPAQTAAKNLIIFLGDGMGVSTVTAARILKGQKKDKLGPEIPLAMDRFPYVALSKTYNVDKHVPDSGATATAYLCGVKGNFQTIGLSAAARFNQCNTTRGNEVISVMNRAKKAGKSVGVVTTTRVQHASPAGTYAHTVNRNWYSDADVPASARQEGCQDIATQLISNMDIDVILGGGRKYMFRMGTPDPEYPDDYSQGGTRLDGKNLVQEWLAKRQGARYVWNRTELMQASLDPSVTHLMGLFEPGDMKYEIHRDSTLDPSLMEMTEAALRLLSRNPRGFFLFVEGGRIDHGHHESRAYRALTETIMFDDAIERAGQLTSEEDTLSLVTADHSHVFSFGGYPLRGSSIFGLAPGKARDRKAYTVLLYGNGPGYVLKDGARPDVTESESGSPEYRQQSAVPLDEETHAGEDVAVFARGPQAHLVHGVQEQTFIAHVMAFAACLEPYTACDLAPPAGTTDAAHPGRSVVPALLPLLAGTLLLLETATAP
# [5] = molecular target: T4, Replicative DNA helicase DnaB (Mycobacterium tuberculosis, UniProt P9WMR3); assay: DnaB intein splicing inhibitors, dose response, biochemical, cell-free fluorescence (AID 449749); assay type: functional
# T4 sequence (P9WMR3 whole entry): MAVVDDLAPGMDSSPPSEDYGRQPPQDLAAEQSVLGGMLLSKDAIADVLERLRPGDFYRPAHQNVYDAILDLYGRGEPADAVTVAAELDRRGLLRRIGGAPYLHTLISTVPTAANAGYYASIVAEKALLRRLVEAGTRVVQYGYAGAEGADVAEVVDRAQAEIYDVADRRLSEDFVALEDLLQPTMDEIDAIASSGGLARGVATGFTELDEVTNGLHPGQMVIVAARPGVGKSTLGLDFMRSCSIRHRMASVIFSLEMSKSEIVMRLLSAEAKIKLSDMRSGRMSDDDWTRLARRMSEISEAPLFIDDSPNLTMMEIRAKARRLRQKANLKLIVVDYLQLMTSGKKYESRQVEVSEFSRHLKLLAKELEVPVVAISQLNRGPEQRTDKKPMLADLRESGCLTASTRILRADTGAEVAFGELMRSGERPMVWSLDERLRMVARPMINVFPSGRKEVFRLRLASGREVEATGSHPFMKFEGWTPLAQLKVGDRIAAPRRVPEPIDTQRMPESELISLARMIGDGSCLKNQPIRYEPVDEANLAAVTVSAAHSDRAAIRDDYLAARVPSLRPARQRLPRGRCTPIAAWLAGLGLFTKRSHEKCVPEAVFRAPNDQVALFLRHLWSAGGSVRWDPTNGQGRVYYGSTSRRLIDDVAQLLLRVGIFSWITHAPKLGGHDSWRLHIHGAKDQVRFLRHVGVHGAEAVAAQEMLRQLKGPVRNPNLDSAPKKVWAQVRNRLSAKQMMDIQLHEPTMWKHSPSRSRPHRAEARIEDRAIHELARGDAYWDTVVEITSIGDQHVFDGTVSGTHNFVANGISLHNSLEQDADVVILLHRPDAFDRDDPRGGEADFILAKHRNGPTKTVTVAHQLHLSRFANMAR
# Protein RecA = molecular target: T5, Protein RecA (Mycobacterium tuberculosis, UniProt P9WHJ3); assay: Fluorescence Cell-Free Homogeneous Dose Retest to Identify Inhibitors of RecA-Intein Splicing Activity. [Related pubchem assays (depositor defined):AID2097, AID2223, AID489010, AID492950]; assay type: functional
# T5 sequence (P9WHJ3 whole entry): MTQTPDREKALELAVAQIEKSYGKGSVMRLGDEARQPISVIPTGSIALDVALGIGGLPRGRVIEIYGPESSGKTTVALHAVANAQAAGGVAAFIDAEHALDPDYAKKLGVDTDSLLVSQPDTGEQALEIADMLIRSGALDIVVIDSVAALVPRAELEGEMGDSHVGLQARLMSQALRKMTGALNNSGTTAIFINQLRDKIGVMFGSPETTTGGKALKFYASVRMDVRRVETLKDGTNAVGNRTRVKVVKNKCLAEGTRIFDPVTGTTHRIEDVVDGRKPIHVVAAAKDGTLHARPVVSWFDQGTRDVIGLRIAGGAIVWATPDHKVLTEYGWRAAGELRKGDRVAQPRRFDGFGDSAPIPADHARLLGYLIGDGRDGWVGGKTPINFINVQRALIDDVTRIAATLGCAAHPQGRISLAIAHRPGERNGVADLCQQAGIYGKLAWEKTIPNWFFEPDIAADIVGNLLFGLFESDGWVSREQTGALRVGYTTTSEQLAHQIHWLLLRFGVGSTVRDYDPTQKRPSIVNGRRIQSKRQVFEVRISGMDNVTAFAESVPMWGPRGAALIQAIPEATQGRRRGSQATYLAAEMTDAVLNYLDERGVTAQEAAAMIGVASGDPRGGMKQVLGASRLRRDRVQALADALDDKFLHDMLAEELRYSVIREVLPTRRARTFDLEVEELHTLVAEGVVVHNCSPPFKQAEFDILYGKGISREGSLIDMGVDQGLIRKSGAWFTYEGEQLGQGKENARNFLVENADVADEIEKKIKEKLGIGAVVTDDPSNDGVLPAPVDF
# [6] = test system: Streptococcus sp. 'group A'; assay: growth inhibition of control SK(-) GAS strain, dose response, counter-screen for streptokinase expression inhibitor project, luminescence, kanamycin, BacTiterGlo, confirmation (AID 1900); assay type: functional, organism-based
# [7] = cytotoxicity in HPDE-C7 cells, cell-based, fluorescence, HTS (AID 430); assay type: functional; conditions: Homo sapiens
# [8] = cytotoxicity in KRAS-transformed pancreatic duct cells, primary screen, cell-based, fluorescence, HTS (AID 431); assay type: functional; conditions: Homo sapiens;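 also: cell line used: HPDE-C7K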
# Streptococcus = assay: Group A Streptococcus viability loss, dose response, counter-screen for streptokinase expression inhibitor project, luminescence, BacTiterGlo (AID 1915); assay type: functional, organism-based;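 also: potency for reduction of bacterial viability or growth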
# Chain of Glyceraldehyde-3-phosphate dehydrogenase (P04406 whole entry): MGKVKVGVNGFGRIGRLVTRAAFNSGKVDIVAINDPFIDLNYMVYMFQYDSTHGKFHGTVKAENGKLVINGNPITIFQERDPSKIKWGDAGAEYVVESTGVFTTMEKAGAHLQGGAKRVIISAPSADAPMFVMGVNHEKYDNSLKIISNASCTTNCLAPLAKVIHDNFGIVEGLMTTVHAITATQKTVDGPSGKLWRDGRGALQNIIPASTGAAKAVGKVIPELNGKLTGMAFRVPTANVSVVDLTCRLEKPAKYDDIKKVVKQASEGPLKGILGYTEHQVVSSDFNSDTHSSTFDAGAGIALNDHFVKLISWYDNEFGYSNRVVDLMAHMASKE
Structure (SMILES),IC50 [1],IC50 [2],IC50 (Leucine aminopeptidase),IC50 (Aspartyl aminopeptidase),IC50 (Procathepsin L),further results
O=S(=O)(Nc1ccncn1)c1cc(Cl)ccc1F,> 100 µM (not active),> 100 µM (inactive),–,–,–,–
COC(=O)c1c(NC(=O)C2CCCCC2C(=O)O)sc2c1CCCCC2 (centres undefined),–,–,1.49 µM (active),> 73.5 µM (not active),> 59.6 µM (not active),–
CCOC(=O)Cc1csc(NC(=O)c2ccc(S(=O)(=O)N3CCCC3)cc2)n1,–,–,–,–,–,EC50 [3]: > 50 µM (active)
O=c1c(-c2cc(O)c(O)c(O)c2)coc2cc(O)c(O)c(O)c12 [IRIGENOL],–,–,–,–,–,AC50 (Cytochrome P450 3A4): 25.1 µM (inconclusive)
CSc1n[nH]c(NC(C)=O)n1,> 10 µM (inconclusive),> 10 µM (inactive),–,–,–,–
Oc1cc(-c2cccc3ccccc23)[nH]n1,> 100 µM (not active),3.87 µM (active),2.9 µM (active),> 73.5 µM (not active),> 59.6 µM (not active),IC50 [4]: > 10 µM (inactive); AC50 [5]: 2.39 µM (active); EC50 (Protein RecA): 0.834 µM (active)
N#Cc1c(NC(=O)CSc2n[nH]c(Cc3ccccc3)n2)oc(-c2ccccc2)c1-c1ccccc1,–,–,–,–,–,EC50 [6]: 4.97 µM (active); EC50 [7]: 4.13 µM (active); EC50 [8]: 5.24 µM (active); EC50 (Streptococcus): 36.5 µM (active)
O=C(O)C1CC=CCC1C(=O)Nc1ccc(Oc2ccc(Cl)cc2)cc1 (centres undefined),–,–,1.02 µM (active),> 73.5 µM (not active),> 59.6 µM (not active),–
